Activity calls are given as the source filed them. No rule for the calls is given here.

One assay relates to M. tuberculosis log-phase growth, CFU enumeration. In words: M. tuberculosis log-phase growth inhibition, dose response, dry powder samples (AID 651850).
Settings: not given
In general, IC90 refers to the point of the concentration-response curve where the effect stands at 90%. With `c1ccc(-n2cc(CSc3nnc(C4CCC4)o3)nn2)cc1`, the 90% effect concentration (IC90) was 62 µM.

On to `Fc1cccc(-c2nnc(SCc3ccccn3)o2)c1`, for which the IC90 was 31 µM.

In the case of `Fc1ccc(-c2nnc(SCc3ccccn3)o2)cc1`, the 90% effect concentration (IC90) was 16 µM.

`c1ccc(-n2cc(CSc3nnc(C4CCCC4)o3)nn2)cc1`: the 90% effect concentration (IC90) was 62 µM.

Consider `O=S(Cc1cn(Cc2ccccc2)nn1)c1nnc(-c2ccc(Cl)cc2)o1` (stereo not drawn), for which the IC90 is 62 µM.

For the compound `c1ccc(-c2nnc(SCc3ccccn3)o2)cc1`, the 90% effect concentration (IC90) is < 31 µM.

Take `COc1cccc(-c2nnc(SCc3ccccn3)o2)c1`: the 90% effect concentration (IC90) was 62 µM.

Turning to `O=S(Cc1ccccc1)c1nnc(-c2ccccc2)o1` (stereo not drawn), the IC90 was < 31 µM.

`c1ccc(CSc2nnc(C3CCCC3)o2)cc1`: the IC90 is 250 µM.

With `c1ccc(CSc2nnc(-c3ccccc3)o2)cc1`, the 90% effect concentration (IC90) was 62 µM.

For the compound `Clc1ccc(-c2nnc(SCc3cn(Cc4ccccc4)nn3)o2)cc1`, the 90% effect concentration (IC90) is 125 µM.

With `CC(C)c1nnc(SCc2ccccc2)o1`, the IC90 was 125 µM.

`Brc1ccc(-c2nnc(SCc3ccccn3)o2)cc1`: the IC90 is 62 µM.

As to `c1ccc(-c2nnc(SCc3cscn3)o2)cc1`, the IC90 is 62 µM.

With `Fc1ccc(-c2nnc(SCc3cn(Cc4ccccc4)nn3)o2)cc1`, the concentration for an effect of 90% (IC90) was 62 µM.

As to `Brc1cccc(-c2nnc(SCc3ccccn3)o2)c1`, the IC90 is 62 µM.

Turning to `c1ccc(-c2nnc(SCCN3CCN(c4ccccc4)CC3)o2)cc1`, the concentration for an effect of 90% (IC90) was 62 µM.

Consider `c1ccc(Cn2cc(CSc3nnc(C4CCCC4)o3)nn2)cc1`, for which the IC90 is 62 µM.

Regarding `COc1ccc(CSc2nnc(-c3ccc(Cl)cc3)o2)nc1`, the IC90 was 16 µM.

System in the next assay: not listed separately
Described as above. The settings on record: M. tuberculosis log-phase growth, CFU enumeration.
As for `Fc1ccc(-c2nnc(SCc3cn(-c4ccccc4)nn3)o2)cc1`, the outcome was inactive.

For the compound `Clc1ccc(-c2nnc(SCc3cn(Cc4ccccc4)nn3)o2)cc1`, the result was inactive.

`Clc1ccc(-c2nnc(SCc3cn(-c4ccccc4)nn3)o2)cc1`: the outcome was inactive.

`c1ccc(Cn2cc(CSc3nnc(-c4ccccc4)o3)nn2)cc1`: the result was inactive.

As to `Fc1ccc(Cn2cc(CSc3nnc(-c4ccc(F)cc4)o3)nn2)cc1`, the result was inactive.

For `Fc1ccc(Cn2cc(CSc3nnc(C4CCCC4)o3)nn2)cc1`, the result was inactive.

With `c1ccc(Cn2cc(CSc3nnc(C4CCC4)o3)nn2)cc1`, the outcome was inactive.

In the case of `Fc1ccc(Cn2cc(CSc3nnc(C4CCC4)o3)nn2)cc1`, the result was inactive.

Turning to `Fc1ccc(Cn2cc(CSc3nnc(-c4ccc(Cl)cc4)o3)nn2)cc1`, the result was inactive.

Source of the values: PubChem BioAssay AID651850 (Broad Institute, 2012).
